Experimental data reported in patent US8680268B2, “Sulfonic acid derivative compound and novel naphthalic acid derivative compound” (Adeka Corporation, priority 2010, dated 2014).

Key:
[1] = Measurement of UV absorption spectra of methanol solutions; assay type: physicochemical; conditions: 1×10^−5 mol/liter; for Maximum absorption (nm), first absorption peak / Maximum absorption (nm), second absorption peak: 200 nm to 500 nm; for Maximum absorption (nm), first absorption peak / Absorbance at first absorption peak: (short wavelength); for Maximum absorption (nm), second absorption peak / Absorbance at second absorption peak: long wavelength
Method: Solutions of the compounds listed in Table 2 among the compounds yielded in the above described examples and the comparative compounds 1-3 represented by the formulae described below in methanol with 1×10^−5 mol/liter were prepared to measure the UV absorption spectra of the solutions at 200 nm to 500 nm.

[2] = Evaluation of solubility in various organic solvents at 25° C.; assay type: physicochemical; conditions: concentration giving a stable solution
Source text: The case in which dissolution occurred at more than 20 mass % is indicated by 20<while the case of less than 0.5 mass % is indicated by 0.5>.

Maximum absorption (nm), first absorption peak [1]	Maximum absorption (nm), second absorption peak [1]	Absorbance at first absorption peak [1]	Absorbance at second absorption peak [1]	Solubility in cyclohexanone [2]	Solubility in propylene glycol monomethyl ether acetate [2]	Solubility in γ-butyrolactone [2]	SMILES
226 nm	336 nm	0.389	0.103	7.1 mass %	1.9 mass %	4.8 mass %	O=C1c2cccc3cccc(c23)C(=O)N1OS(=O)(=O)C(F)(F)F [Comparative compound 2]
231 nm	335 nm	0.413	0.133	6.1 mass %	1.1 mass %	12.6 mass %	CC1(C)C2CCC1(CS(=O)(=O)ON1C(=O)c3cccc4cccc(c34)C1=O)C(=O)C2 (stereo not shown) [compound 1]
229 nm	335 nm	0.513	0.117	1.0 mass %	< 0.5 mass %	1.9 mass %	Cc1ccc(S(=O)(=O)ON2C(=O)c3cccc4cccc(c34)C2=O)cc1 [compound 3]

SMILES	Maximum absorption (nm), first absorption peak [1]	Maximum absorption (nm), second absorption peak [1]	Absorbance at first absorption peak [1]	Absorbance at second absorption peak [1]	Solubility in cyclohexanone [2]	Solubility in propylene glycol monomethyl ether acetate [2]	Solubility in γ-butyrolactone [2]
CCCCSc1ccc2c3c(cccc13)C(=O)N(OS(=O)(=O)CC13CCC(CC1=O)C3(C)C)C2=O (stereo not shown) [Compound S-28]					14.0 mass %	2.8 mass %	17.8 mass %
CCCCCCCCSc1ccc2c3c(cccc13)C(=O)N(OS(=O)(=O)CC13CCC(CC1=O)C3(C)C)C2=O (stereo not shown) [Compound S-29]	210 nm	400 nm	0.299	0.158	> 20 mass %	9.0 mass %	20< mass %
